This is an account of results in patent publication US6433175B1, “Pyrroloindoles, pyridoindoles and azepinoindoles as 5-ht2c agonists” (Vernalis Research Limited, priority 1998, dated 2002).

Data set [1] has as its target T1, human 5-HT2C (Homo sapiens, UniProt P28335).
T1 sequence (P28335 33-458): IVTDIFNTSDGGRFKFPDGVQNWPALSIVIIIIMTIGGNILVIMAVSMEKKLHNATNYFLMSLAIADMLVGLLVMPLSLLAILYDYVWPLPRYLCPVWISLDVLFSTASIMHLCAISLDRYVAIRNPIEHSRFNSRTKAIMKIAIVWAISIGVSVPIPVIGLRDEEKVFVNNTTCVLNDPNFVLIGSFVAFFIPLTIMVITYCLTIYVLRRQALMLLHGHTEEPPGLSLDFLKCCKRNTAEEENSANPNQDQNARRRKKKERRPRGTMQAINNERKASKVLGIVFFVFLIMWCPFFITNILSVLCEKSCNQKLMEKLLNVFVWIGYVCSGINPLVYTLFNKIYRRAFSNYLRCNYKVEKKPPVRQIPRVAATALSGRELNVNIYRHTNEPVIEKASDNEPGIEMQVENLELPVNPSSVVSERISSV
As to the kind of experiment: Binding to 5-HT2C receptor, [3H]-5-HT, CHO cell line. Also noted: expressed in transfected cells; host or cells: CHO cell line. The procedure: (§1) The binding of compounds of formula (I) to serotonin receptors was determined in vitro by standard methods. The preparations were investigated in accordance with the assays given hereinafter.
Method (a): For the binding to the 5-HT2C receptor the 5-HT2C receptors were radiolabeled with [^3H]-5-HT. The affinity of the compounds for 5-HT2C receptors in a CHO cell line was determined according to the procedure of D. Hoyer, G. Engel and H. O. Kalkman, European J. Pharmacol., 1985, 118, 13-23.

Data set [2] addresses T1, human 5-HT2C. Description: Functional activity, FLIPR calcium assay, CHO cells expressing human 5-HT2C. Also noted: expressed in transfected cells; host or cells: CHO cells. The class given is cell-based. To be noted: for EC50: CHO cells; for h5-HT2c Relative Efficacy: maximum fluorescent signal relative to 10 μM 5-HT (100%). The procedure:
(§2) The functional activity of compounds of formula (I) was assayed using a Fluorimetric Imaging Plate reader (FLIPR). CHO cells expressing the human 5-HT2C or human 5-HT2A receptors were counted and plated into standard 96 well microtitre plates on the day before testing to give a confluent monolayer. The cells were then dye loaded with the calcium sensitive dye, Fluo-3-AM. Unincorporated dye was removed using an automated cell washer to leave a total volume of 100 μL/well of assay buffer (Hanks balanced salt solution containing 20 mM Hepes and 2.5 mM probenecid). The drug (dissolved in 50 μL of the assay buffer) was added at a rate of 70 μL/sec to each well of the FLIPR 96 well plate during fluorescence measurements. The measurements were taken at 1 sec intervals and the maximum fluorescent signal was measured (approx 10-15 secs after drug addition) and compared with the response produced by 10 μM 5-HT (defined as 100%) to which it was expressed as a percentage response (relative efficacy). Dose response curves were constructed using Graphpad Prism (Graph Software Inc.).

In data set [3] the target is T2, 5-HT2A receptor (Homo sapiens, UniProt P28223). As to the kind of experiment: Functional activity, FLIPR calcium assay, CHO cells expressing human 5-HT2A. Format: cell-based. Also noted: expressed in transfected cells; host or cells: CHO cells. The conditions noted are these: for EC50: CHO cells; for h5-HT2A Relative Efficacy: maximum fluorescent signal relative to 10 μM 5-HT (100%). The procedure:
as §2

The target in data set [4] is T3, human 5-HT2B receptors (Homo sapiens, UniProt P41595).
T3 construct: expressed in transfected cells; host or cells: CHO cell line
As to the kind of experiment: Binding to 5-HT2B receptor, [3H]-5-HT, CHO cell line. The procedure: as §1
Method (b): For the binding to the 5-HT2B receptor the 5-HT2B receptors were radiolabeled with [^3H]-5-HT. The affinity of the compounds for human 5-HT2B receptors in a CHO cell line was determined according to the procedure of K. Schmuck, C. Ullmer, P. Engels and H. Lubbert, FEBS Lett., 1994, 342, 85-90.

Data set [5] addresses T2, 5-HT2A receptor. As to the kind of experiment: Binding to 5-HT2A receptor, [125I]-DOI, CHO cell line. Also noted: expressed in transfected cells; host or cells: CHO cell line. The procedure:
as §1
Method (c): For the binding to the 5-HT2A receptor the 5-HT2A receptors were radiolabeled with [^125I]-DOI. The affinity of the compounds for 5-HT2A receptors in a CHO cell line was determined according to the procedure of D. J. McKenna and S. J. Peroutka, J. Neurosci., 1989, 9, 3482-90.

The subject of data set [6] is rats. Description: In vivo efficacy: 5-HT2C syndrome in rats. Also noted: species or system rat. To be noted: 20 mg/kg s.c. The protocol:
The in vivo efficacy of 5-HT2C agonists was assessed by the ability of the compounds to induce three specific behaviours (5HT2C Syndrome) in rats.
The 5-HT2c syndrome is a rapid screening method to assess the in vivo efficacy of 5-HT2c agonists through their ability to induce three specific behaviours in rats. The animals were dosed with either a positive control (mCPP), test compound or vehicle, either sub-cutaneously or p.o. The animals were observed on an open bench, typically 30, 60 and 180 minutes after dosing and the degree of syndrome was assessed over a two minute period on a scale of 0-3 depending on the presence and severity of splayed limbs, hunched posture and retro-pulsion, the three specific behaviours which constitute the syndrome. Data were analysed using Kruskal-Wallis Analysis of Variance followed with appropriate post-hoc tests. All statistical analysis were conducted using Excel version 7.0 (Microsoft Corp.) and Statistica version 5.0 (Statsoft, Inc.).

[7] abbreviates: [3H]-5-HT, CHO cell line, read-out: Ki (2C).
[8] abbreviates: [3H]-5-HT, human receptor, CHO cell line, read-out: Ki (2B).
Where [9] appears, read: [125I]-DOI, CHO cell line, read-out: Ki (2A).

Counter-ions that a name gives are not always drawn. Like-named read-outs stand apart in the source and are kept apart here.

By melting point is commonly meant the temperature, or range, at which the solid turns liquid. Usually Ki stands for the dissociation constant of the complex between target and ligand, obtained from inhibition or displacement. As a reminder, the EC50 is the concentration needed to bring the measured effect to its halfway point.

T2 sequence (P28223 whole entry): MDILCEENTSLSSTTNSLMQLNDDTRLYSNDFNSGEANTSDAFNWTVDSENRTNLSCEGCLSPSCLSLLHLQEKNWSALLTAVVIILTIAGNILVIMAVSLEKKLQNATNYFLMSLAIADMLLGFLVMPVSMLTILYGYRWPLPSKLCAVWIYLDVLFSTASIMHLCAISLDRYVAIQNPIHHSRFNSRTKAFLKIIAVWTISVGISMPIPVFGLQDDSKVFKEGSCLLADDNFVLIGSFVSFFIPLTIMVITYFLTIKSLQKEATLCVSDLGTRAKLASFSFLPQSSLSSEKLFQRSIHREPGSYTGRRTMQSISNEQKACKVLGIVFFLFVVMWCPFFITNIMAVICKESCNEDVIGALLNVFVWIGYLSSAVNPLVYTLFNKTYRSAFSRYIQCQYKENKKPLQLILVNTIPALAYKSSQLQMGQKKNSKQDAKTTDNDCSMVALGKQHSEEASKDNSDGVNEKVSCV
T3 sequence (P41595 whole entry): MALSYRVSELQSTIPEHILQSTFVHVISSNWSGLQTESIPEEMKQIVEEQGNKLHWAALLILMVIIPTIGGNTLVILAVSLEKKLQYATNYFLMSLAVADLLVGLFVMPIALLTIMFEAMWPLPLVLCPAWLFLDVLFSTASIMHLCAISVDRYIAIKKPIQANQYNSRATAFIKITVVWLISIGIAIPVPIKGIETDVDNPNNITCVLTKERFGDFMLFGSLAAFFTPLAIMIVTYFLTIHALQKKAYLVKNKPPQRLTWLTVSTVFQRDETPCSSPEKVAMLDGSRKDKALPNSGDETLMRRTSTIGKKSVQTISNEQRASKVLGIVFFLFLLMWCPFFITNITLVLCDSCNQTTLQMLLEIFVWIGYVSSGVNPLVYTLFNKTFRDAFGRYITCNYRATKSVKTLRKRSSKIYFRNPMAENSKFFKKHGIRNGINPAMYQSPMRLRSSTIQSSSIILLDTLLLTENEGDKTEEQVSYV

With `CC(N)Cc1c2n(c3ccc(OCc4ccccc4)cc13)CCC2` (racemic) (as salt: fumarate), the melting point is 146 to 147 °C (dec.).
On the same count and under the same terms, for `CC(N)Cc1c2n(c3cccc(Cl)c13)CCC2` (racemic) (as salt: fumarate) the value was 207 to 208 °C; for `COc1ccc2c(c1)c(CC(C)N)c1n2CCC1` (racemic) (as salt: fumarate) [Example 3, (RS)-1-(7-Methoxy-2,3-dihydro-1H-pyrrolo[1,2-a]indol-9-yl)-2-propylamine fumarate], 194 to 196 °C.
Same read-out and setting: under `Cc1ccc2c(c1)c(CC(C)N)c1n2CCC1` (racemic) (as salt: fumarate) [Example 6, (RS)-1-(7-Methyl-2,3-dihydro-1H-pyrrolo[1,2-a]indol-9-yl)-2-propylamine fumarate] stands 138 to 139 °C.
Same read-out and setting: under `CSc1ccc2c(c1)c(CC(C)N)c1n2CCC1` (racemic) (as salt: fumarate) [Example 11, (RS)-1-(7-Methylthio-2,3-dihydro-1H-pyrrolo[1,2-a]indol-9-yl)-2-propylamine fumarate] stands 204 to 206 °C (dec.); under `COc1ccc2c(c1)c(CC(C)NCC1CC1)c1n2CCC1` (racemic) (as salt: hydrochloride), 149 to 151 °C.
`COc1ccc2c(c1)c(CC(C)NCC1CCCCC1)c1n2CCC1` (racemic) (as salt: hydrochloride): the melting point was 210 to 213 °C.
The same measure, in the same setting: for `COc1ccc2c(c1)c(CC(C)NCC(C)(C)C)c1n2CCC1` (racemic) (as salt: hydrochloride) the value was 226 to 228 °C.
Turning to `COc1ccc2c(c1)c(CC(C)NCCC(C)C)c1n2CCC1` (racemic) (as salt: hydrochloride), the melting point lay in the range of 118 to 121 °C.
Compound `CC(N)Cc1c2n(c3ccc(Cl)cc13)CCC2` (racemic) (as salt: hydrochloride) [Example 1, (RS)-1-(7-Chloro-2,3-dihydro-1H-pyrrolo[1,2-a]indol-9-yl)-2-propylamine hydrochloride] displayed a melting point of 272 to 273 °C.
Same read-out and setting: under `CC(N)Cc1c2n(c3cc(F)c(F)cc13)CCC2` (racemic) (as salt: hydrochloride) [Example 2, (RS)-1-(6,7-Difluoro-2,3-dihydro-1H-pyrrolo[1,2-a]indol-9-yl)-2-propylamine hydrochloride] stands 264 to 266 °C.
In the case of `CC(N)Cc1c2n(c3ccc(Cl)cc13)CCC2` (racemic) [Example 1, (RS)-1-(7-Chloro-2,3-dihydro-1H-pyrrolo[1,2-a]indol-9-yl)-2-propylamine hydrochloride], the results for the inhibition constant (Ki) in data set [1] (setting [7]), in data set [4] (setting [8]) and in data set [5] (setting [9]) were 110 nM, 229 nM and 457 nM, respectively. Also, the EC50 in data set [2] (h5-HT2c EC50, FLIPR) turned out to be 96 nM; in data set [3] (FLIPR, read-out: h5-HT2A EC50) it was 3240 nM. The “h5-HT2c Relative Efficacy” value in data set [2] worked out at 68%. The “h5-HT2A Relative Efficacy” value in data set [3] is 33%.
Consider `CC(N)Cc1c2n(c3cc(F)c(F)cc13)CCC2` (racemic) [Example 2, (RS)-1-(6,7-Difluoro-2,3-dihydro-1H-pyrrolo[1,2-a]indol-9-yl)-2-propylamine hydrochloride], for which the inhibition constant (Ki) turned out to be 97 nM in data set [1], 102 nM in data set [4] and 257 nM in data set [5]. For the same compound, the half-maximal effective concentration (EC50) in data set [2] (FLIPR, read-out: h5-HT2c EC50) was 147 nM; in data set [3] (h5-HT2A EC50, FLIPR), greater than 1000 nM. The “h5-HT2c Relative Efficacy” value in data set [2] was 38%. Besides, the “h5-HT2A Relative Efficacy” value in data set [3] is reported as 12%.
In the case of `COc1ccc2c(c1)c(CC(C)N)c1n2CCC1` (racemic) [Example 3, (RS)-1-(7-Methoxy-2,3-dihydro-1H-pyrrolo[1,2-a]indol-9-yl)-2-propylamine fumarate], the “time for which significant pharmacological efficacy is maintained (5-HT2C syndrome)” value in data set [6] is listed as “at least 180 minutes”. Also, the Ki in data set [1] (setting [7]) was found to be 118 nM; in data set [4] (setting [8]) it was 220 nM; in data set [5] (setting [9]), 151 nM. In addition, the concentration for a half-maximal effect (EC50) in data set [2] (h5-HT2c EC50, FLIPR) was 32 nM; in data set [3] (FLIPR, read-out: h5-HT2A EC50), 636 nM. In addition, the “h5-HT2c Relative Efficacy” value in data set [2] was 63%. Moreover, the “h5-HT2A Relative Efficacy” value in data set [3] stood at 22%.
As to `CC(N)Cc1c2n(c3ccc(Br)cc13)CCC2` (racemic) [Example 5, (RS)-1-(7-Bromo-2,3-dihydro-1H-pyrrolo[1,2-a]indol-9-yl)-2-propylamine fumarate], the inhibition constant (Ki) stood at 81 nM in data set [1] (setting [7]), 122 nM in data set [4] (setting [8]) and 448 nM in data set [5] (setting [9]). Besides, the EC50 in data set [2] (h5-HT2c EC50, FLIPR) came to 94 nM; in data set [3] (FLIPR, read-out: h5-HT2A EC50) it was 4020 nM. In addition, the “h5-HT2c Relative Efficacy” value in data set [2] is recorded as 69%. The “h5-HT2A Relative Efficacy” value in data set [3] was 33%.
As for `Cc1ccc2c(c1)c(CC(C)N)c1n2CCC1` (racemic) [Example 6, (RS)-1-(7-Methyl-2,3-dihydro-1H-pyrrolo[1,2-a]indol-9-yl)-2-propylamine fumarate], the EC50 in data set [2] (h5-HT2c EC50, FLIPR) is 348 nM; in data set [3] (FLIPR, read-out: h5-HT2A EC50) it was greater than 10000 nM. The “h5-HT2c Relative Efficacy” value in data set [2] turned out to be 56%.
Take `CC(N)Cc1c2n(c3cc4c(cc13)OCO4)CCC2` (racemic) [Example 7, (RS)-1-[6,7-(Methylenedioxy)-2,3-dihydro-1H-pyrrolo[1,2-a]indol-9-yl]-2-propylamine fumarate]: the half-maximal effective concentration (EC50) in data set [2] (h5-HT2c EC50, FLIPR) came to 227 nM; in data set [3] (FLIPR, read-out: h5-HT2A EC50) it was 2620 nM. The “h5-HT2c Relative Efficacy” value in data set [2] was 59%. In addition, the “h5-HT2A Relative Efficacy” value in data set [3] was 37%.
Consider `CSc1ccc2c(c1)c(CC(C)N)c1n2CCC1` (racemic) [Example 11, (RS)-1-(7-Methylthio-2,3-dihydro-1H-pyrrolo[1,2-a]indol-9-yl)-2-propylamine fumarate], for which the figures for the inhibitory constant (Ki) in data set [1] (setting [7]), in data set [4] (setting [8]) and in data set [5] (setting [9]) were 84 nM, 115 nM and 316 nM, respectively. The EC50 was 8 nM in data set [2] (h5-HT2c EC50, FLIPR) and greater than 10000 nM in data set [3] (FLIPR, read-out: h5-HT2A EC50). Moreover, the “h5-HT2c Relative Efficacy” value in data set [2] was found to be 80%.
As to `COc1ccc2c(c1)c(CC(C)N)c1n2CCC1` (single isomer, unassigned; enantiomer 1) [Example 8], the concentration giving a half-maximal response (EC50) was 33 nM in data set [2] (h5-HT2c EC50, FLIPR) and 921 nM in data set [3] (FLIPR, read-out: h5-HT2A EC50). Also, the “h5-HT2c Relative Efficacy” value in data set [2] came out at 58%. Moreover, the “h5-HT2A Relative Efficacy” value in data set [3] is reported as 36%.
The like results for `COc1ccc2c(c1)c(CC(C)N)c1n2CCC1` (single isomer, unassigned; enantiomer 2) [Example 9, Enantiomer 2 of 1-(7-Methoxy-2,3-dihydro-1H-pyrrolo[1,2-a]indol-9-yl)-2-propylamine fumarate] were, in that order, 7 nM, 792 nM, 81% and 40%.
